Results as given in patent US9259491B2, “Class of diazepine derivative chelating agents and complexes with paramagnetic metals thereof as MRI contrast agents” (BRACCO IMAGING S.P.A., priority 2012, dated 2016).

Tests used:
[1] = Millimolar relaxivity r1p from T1 measurements in water, HSA 4% and human plasma (0.47T/20 MHz, 25° C.); assay type: physicochemical
Procedure: (§1) For all the compounds, longitudinal relaxation times (T1) at 20 MHz and at 25° C. on a mq20 Minispec instrument (Bruker Biospin, Germany) were measured in water, human serum albumin at physiological concentration and human plasma. Millimolar relaxivity r1p was thus determined from T1 measurements using the following equation: R^i1obs=1/T^i,J1obs=r^i,j1p·[Gd^3+]+1/T^j1 wherein R^i1obs is the observed relaxation […] of the selected contrast agent, T1obs is the observed longitudinal relaxation time of the solution and the indexes i and j relate to the contrast agent and to the medium respectively.

[2] = Stability at 37° C. of diazepine complexes determined through r1p measurement in different media; assay type: physicochemical; settings: 0.47T, 25° C.
Procedure: as §1
In its turn, this means that the present amphiphilic complexes can be administered and detected during MRI experiments allowing a clear and exhaustive analysis of the image over a suitable frame of time.

Row | SMILES | r1p ([1]; HSA 4%) [mM⁻¹ s⁻¹] | r1p ([1]; Human plasma) [mM⁻¹ s⁻¹] | r1p ([1]; Water) [mM⁻¹ s⁻¹] | r1p (stability at 37° C.) ([2]; Water, T0) [mM⁻¹ s⁻¹] | also measured
1 | C[NH2+]C[C@H](O)[C@@H](O)[C@H](O)[C@H](O)CO.O=C([O-])CN1CCN(CC(=O)[O-])CCN(CC(=O)[O-])CCN(CC(=O)[O-])CC1.[Gd+3] [Gd-DOTA, [[1,4,7,10-tetraazacyclododecane-1,4,7,10-tetraacetato(4-)]gadolinate(1-)] meglumine, reference compound] | 4.11 | 4.51 | 3.61 | – | –
2 | CC(O)CN1CCN(CC(=O)[O-])CCN(CC(=O)[O-])CCN(CC(=O)[O-])CC1.[Gd+3] (stereo not drawn) [Gd-HP-DO3A, [10-(2-hydroxyprop-1-yl)-1,4,7,10-tetraazacyclododecane-1,4,7-triacetato(3-)]gadolinium, reference compound] | 3.85 | 4.80 | 3.32 | – | –
3 | CCCCCCCCCCCC(=O)OC[C@H](COP(=O)(O)OCCNC(=O)CCCCC1(N(CC(=O)[O-])CC(=O)[O-])CN(CC(=O)[O-])CCN(CC(=O)[O-])C1)OC(=O)CCCCCCCCCCC.[Gd+3].[Na+] [Compound 9b] | 32.0 | 32.5 | 16.7 | 16.7 | r1p (stability at 37° C.) ([2]; Human plasma, 1 h): 30.9 mM⁻¹ s⁻¹; r1p (stability at 37° C.) ([2]; Human plasma, 4 h): 28.3 mM⁻¹ s⁻¹; r1p (stability at 37° C.) ([2]; Human plasma, T0): 32.5 mM⁻¹ s⁻¹; r1p (stability at 37° C.) ([2]; Water, 1 h): 15.9 mM⁻¹ s⁻¹; r1p (stability at 37° C.) ([2]; Water, 4 h): 15.5 mM⁻¹ s⁻¹
4 | O=C([O-])CN1CCN(CC(=O)[O-])CCN([C@H](CO)[C@H](O)CO)CCN(CC(=O)[O-])CC1.[Gd+3] [Gd-BT-DO3A, reference compound] | 4.31 | 5.76 | 3.75 | – | –
5 | C[NH2+]C[C@H](O)[C@@H](O)[C@H](O)[C@H](O)CO.C[NH2+]C[C@H](O)[C@@H](O)[C@H](O)[C@H](O)CO.O=C([O-])CN(CCN(CC(=O)[O-])CC(=O)[O-])CCN(CC(=O)[O-])C(COCc1ccccc1)C(=O)[O-].[Gd+3] (stereo not drawn) [Gd-BOPTA, [[4-(carboxy)-5,8,11-tris(carboxymethyl)-1-phenyl-2-oxa-5,8,11-triazatridecan-13-oato(5-)]gadolinate(2-)]dimeglumine, reference compound] | 8.9 | 8.7 | 4.6 | – | –

Further lines, with some results ahead:

Row | r1p ([1]; HSA 4%) [mM⁻¹ s⁻¹] | r1p ([1]; Human plasma) [mM⁻¹ s⁻¹] | r1p ([1]; Water) [mM⁻¹ s⁻¹] | r1p (stability at 37° C.) ([2]; Water, T0) [mM⁻¹ s⁻¹] | SMILES | also measured
6 | 46.7 | 45.2 | 23.5 | 23.5 | CCCCCCCCCCN(CCCCCCCCCC)C(=O)CCCCC1(N(CC(=O)[O-])CC(=O)[O-])CN(CC(=O)[O-])CCN(CC(=O)[O-])C1.[Gd+3].[Na+] [Compound 12d, [[6-[Bis[(carboxy)methyl]amino]-6-[5-(didecylamino)-5-oxopent-1-yl]-tetrahydro-1H-1,4-diazepine-1,4(5H)-diacetate(4-)]gadolinate(1-)]sodium] | r1p (stability at 37° C.) ([2]; HSA 4%, 5 h): 40.9 mM⁻¹ s⁻¹; r1p (stability at 37° C.) ([2]; HSA 4%, T0): 46.7 mM⁻¹ s⁻¹; r1p (stability at 37° C.) ([2]; Human plasma, 2 h): 39.2 mM⁻¹ s⁻¹; r1p (stability at 37° C.) ([2]; Human plasma, 5 h): 34.7 mM⁻¹ s⁻¹; r1p (stability at 37° C.) ([2]; Human plasma, T0): 45.2 mM⁻¹ s⁻¹; r1p (stability at 37° C.) ([2]; Water, 2 h): 20.4 mM⁻¹ s⁻¹; r1p (stability at 37° C.) ([2]; Water, 5 h): 15.8 mM⁻¹ s⁻¹
7 | 31.5 | 33.7 | 13.0 | – | CCCCCCN(CCCCCC)C(=O)CCCCC1(N(CC(=O)[O-])CC(=O)[O-])CN(CC(=O)[O-])CCN(CC(=O)[O-])C1.[Gd+3].[Na+] [Compound 12b, [[6-[Bis[(carboxy)methyl]amino]-6-[5-(dihexylamino)-5-oxopent-1-yl]-tetrahydro-1H-1,4-diazepine-1,4(5H)-diacetate(4-)]gadolinate(1-)]sodium] | –
8 | 40.4 | 36.2 | 33.4 | 33.4 | CCCCCCCCCCCCN(CCCCCCCCCCCC)C(=O)CCCCC1(N(CC(=O)[O-])CC(=O)[O-])CN(CC(=O)[O-])CCN(CC(=O)[O-])C1.[Gd+3].[Na+] [Compound 12e, [[6-[Bis[(carboxy)methyl]amino]-6-[5-(didodecylamino)-5-oxopent-1-yl]-tetrahydro-1H-1,4-diazepine-1,4(5H)-diacetate(4-)]gadolinate(1-)]sodium] | r1p (stability at 37° C.) ([2]; Human plasma, 2 h): 35.2 mM⁻¹ s⁻¹; r1p (stability at 37° C.) ([2]; Human plasma, 4 h): 32.3 mM⁻¹ s⁻¹; r1p (stability at 37° C.) ([2]; Human plasma, T0): 36.2 mM⁻¹ s⁻¹; r1p (stability at 37° C.) ([2]; Water, 2 h): 31.3 mM⁻¹ s⁻¹; r1p (stability at 37° C.) ([2]; Water, 4 h): 30.4 mM⁻¹ s⁻¹
9 | 40.2 | 43.0 | 14.7 | – | CCCCCCCCCC(=O)OC[C@H](COP(=O)([O-])OCCNC(=O)C1CCC(C2(N(CC(=O)[O-])CC(=O)[O-])CN(CC(=O)[O-])CCN(CC(=O)[O-])C2)CC1)OC(=O)CCCCCCCCC.[Gd+3].[Na+].[Na+] (stereo partly drawn) [Compound 25c, [6-[-[Bis(carboxymethyl)amino]-6-[(1R,4R)-4-[[[(7R)-4-hydroxy-4-oxido-10-oxo-7-[(1-oxodecyl)oxy]-3,5,9-trioxa-4-phosphanonadec-1-yl]amino]-carbonyl]-cyclohexane-1-yl]tetrahydro-1H-1,4-diazepine-1,4(5H)-diacetate(5)]gadolinate(2-)]disodium] | –
10 | 41.0 | 39.1 | 14.6 | – | CCCCCCCCN(CCCCCCCC)C(=O)C1CCC(C2(N(CC(=O)[O-])CC(=O)[O-])CN(CC(=O)[O-])CCN(CC(=O)[O-])C2)CC1.[Gd+3].[Na+] [Compound 25b, [6-[Bis(carboxymethyl)amino]-6-[(1R,4R)-4-[(dioctylamino)-carbonyl]-cyclohexane-1-yl]tetrahydro-1H-1,4-diazepine-1,4(5H)diacetate(4-)]gadolinate(1-)]sodium] | –
11 | 54.2 | 50.2 | 13.3 | – | CCCCCCCCN(CCCCCCCC)C(=O)CCCCC1(N(CC(=O)[O-])CC(=O)[O-])CN(CC(=O)[O-])CCN(CC(=O)[O-])C1.[Gd+3].[Na+] [Compound 12c, [[6-[Bis[(carboxy)methyl]amino]-6-[5-(dioctylamino)-5-oxopent-1-yl]-tetrahydro-1H-1,4-diazepine-1,4(5H)-diacetate(4-)]gadolinate(1-)]sodium] | –
12 | 45.8 | 41.1 | 23.9 | 23.9 | CCCCCCCCCCN(CCCCCCCCCC)C(=O)C1CCC(C2(N(CC(=O)[O-])CC(=O)[O-])CN(CC(=O)[O-])CCN(CC(=O)[O-])C2)CC1.[Gd+3].[Na+] [Compound 25a, [[6-[Bis(carboxymethyl)amino]-6-[(1R,4R)-4-[(didecylamino)-carbonyl]-cyclohexane-1-yl]tetrahydro-1H-1,4-diazepine-1,4(5H)diacetate(4-)]gadolinate(1-)]sodium] | r1p (stability at 37° C.) ([2]; HSA 4%, 5 h): 40.4 mM⁻¹ s⁻¹; r1p (stability at 37° C.) ([2]; HSA 4%, T0): 45.8 mM⁻¹ s⁻¹; r1p (stability at 37° C.) ([2]; Water, 5 h): 23.4 mM⁻¹ s⁻¹
